Where “and” joins values, the source holds several entries; their conditions need not be identical. Equal entries are not always repeated.
How the values were obtained:
RyR1-W995A R12 = molecular target: T1, RyR1-W995A R12 (Homo sapiens, UniProt P21817, W995A); assay: ITC, RyR1 R12 W995A; format: binding
T1 construct: RyR1 854–1054, RyR2 865–1065, RyR3 853–1053; made in house; host or cells: E. coli BL21 (DE3)
T1 sequence (P21817 854-1054 W995A): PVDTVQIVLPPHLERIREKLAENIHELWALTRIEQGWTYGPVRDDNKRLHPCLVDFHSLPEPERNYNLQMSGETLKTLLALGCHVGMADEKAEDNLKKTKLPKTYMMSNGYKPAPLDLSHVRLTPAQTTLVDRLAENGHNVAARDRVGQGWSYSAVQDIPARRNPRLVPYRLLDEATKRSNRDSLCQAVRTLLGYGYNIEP
Procedure: The plasmids were subsequently transformed into E. coli BL21 (DE3) cells (NEB, USA) and cultured in Luria-Bertani (LB) media at 37 °C. Protein expression was induced with 0.4 mM isopropyl β-D-thiogalactoside (IPTG) when the optical density (OD)600 reached ~0.8, followed by incubation at 18 °C for 12 h. The cells were harvested via centrifugation at 5,000 × g for 15 min at 4 °C and homogenized in Buffer A (10 mM HEPES, pH 7.4, 250 mM KCl) supplemented with 25 µg/mL DNaseI, 25 µg/mL lysozyme, 1 mM phenylmethylsulfonyl fluoride (PMSF), and 20 mM imidazole. The homogenate was centrifuged at 12,000 × g for 45 min, and the supernatant was filtered through a syringe filter (0.22 µm).
Purified R12 domain protein from the three RyR isoforms, fused with hexahistidine-tagged MBP (HMT-R12) was dialyzed overnight at 4 °C in ITC buffer (200 mM HEPES, pH 7.4, 150 mM KCl). ITC experiments were performed using a PEAQ-ITC instrument (Malvern, UK) at 25 °C with a stirring speed of 750 rpm. […] For the ternary binding experiments, 500 μM or 5 mM AMP-PCP/ADP was preincubated with both the titrants and titrates. […] The data was fit to a one-site fitting model after background buffer subtraction. The RyR1 R12 mutants were generated using a QuikChange mutagenesis kit (Stratagene) according to the manufacturer’s protocol, with primer sequences listed in Supplementary Table 3.

WT RyR1 = molecular target: T2, WT RyR1 (Oryctolagus cuniculus, UniProt P11716); assay: Ca2+-dependent [3H]ryanodine binding, microsomes; format: biochemical; details: for [3H]ryanodine binding (B/Bmax): Fig. 5C source data, RI-2 100 μM, single replicates
T2 construct: expressed in transfected cells
Procedure: The assay was performed as previously described[44],[45] with minor modifications. Briefly, microsomes from HEK293 cells stably expressing WT RyR1 were incubated with 5 nM [³H]ryanodine for 5 h at 25 °C in a medium containing 0.17 M NaCl, 20 mM MOPSO (pH 7.0), 2 mM dithiothreitol, 1 mM β,γ-methyleneadenosine 5′-triphosphate, and free Ca²⁺ buffered with 10 mM EGTA at varying concentrations. Free Ca²⁺ levels were calculated using WEBMAXC […][46]. Protein-bound [³H]Ryanodine (B) was isolated by filtration through polyethyleneimine-treated GF/B filters (Whatman) using a Micro 96 Cell Harvester (Skatron Instruments). Nonspecific binding was assessed by adding 20 µM unlabeled ryanodine. The maximum binding capacity of [³H]ryanodine (Bmax) was determined via Scatchard plot analysis with various concentrations (3–20 nM) of [³H]ryanodine in a high-salt medium containing 1 M NaCl. The resulting B/Bmax values represent the average activity of the cells.

T2 sequence (P11716 whole entry): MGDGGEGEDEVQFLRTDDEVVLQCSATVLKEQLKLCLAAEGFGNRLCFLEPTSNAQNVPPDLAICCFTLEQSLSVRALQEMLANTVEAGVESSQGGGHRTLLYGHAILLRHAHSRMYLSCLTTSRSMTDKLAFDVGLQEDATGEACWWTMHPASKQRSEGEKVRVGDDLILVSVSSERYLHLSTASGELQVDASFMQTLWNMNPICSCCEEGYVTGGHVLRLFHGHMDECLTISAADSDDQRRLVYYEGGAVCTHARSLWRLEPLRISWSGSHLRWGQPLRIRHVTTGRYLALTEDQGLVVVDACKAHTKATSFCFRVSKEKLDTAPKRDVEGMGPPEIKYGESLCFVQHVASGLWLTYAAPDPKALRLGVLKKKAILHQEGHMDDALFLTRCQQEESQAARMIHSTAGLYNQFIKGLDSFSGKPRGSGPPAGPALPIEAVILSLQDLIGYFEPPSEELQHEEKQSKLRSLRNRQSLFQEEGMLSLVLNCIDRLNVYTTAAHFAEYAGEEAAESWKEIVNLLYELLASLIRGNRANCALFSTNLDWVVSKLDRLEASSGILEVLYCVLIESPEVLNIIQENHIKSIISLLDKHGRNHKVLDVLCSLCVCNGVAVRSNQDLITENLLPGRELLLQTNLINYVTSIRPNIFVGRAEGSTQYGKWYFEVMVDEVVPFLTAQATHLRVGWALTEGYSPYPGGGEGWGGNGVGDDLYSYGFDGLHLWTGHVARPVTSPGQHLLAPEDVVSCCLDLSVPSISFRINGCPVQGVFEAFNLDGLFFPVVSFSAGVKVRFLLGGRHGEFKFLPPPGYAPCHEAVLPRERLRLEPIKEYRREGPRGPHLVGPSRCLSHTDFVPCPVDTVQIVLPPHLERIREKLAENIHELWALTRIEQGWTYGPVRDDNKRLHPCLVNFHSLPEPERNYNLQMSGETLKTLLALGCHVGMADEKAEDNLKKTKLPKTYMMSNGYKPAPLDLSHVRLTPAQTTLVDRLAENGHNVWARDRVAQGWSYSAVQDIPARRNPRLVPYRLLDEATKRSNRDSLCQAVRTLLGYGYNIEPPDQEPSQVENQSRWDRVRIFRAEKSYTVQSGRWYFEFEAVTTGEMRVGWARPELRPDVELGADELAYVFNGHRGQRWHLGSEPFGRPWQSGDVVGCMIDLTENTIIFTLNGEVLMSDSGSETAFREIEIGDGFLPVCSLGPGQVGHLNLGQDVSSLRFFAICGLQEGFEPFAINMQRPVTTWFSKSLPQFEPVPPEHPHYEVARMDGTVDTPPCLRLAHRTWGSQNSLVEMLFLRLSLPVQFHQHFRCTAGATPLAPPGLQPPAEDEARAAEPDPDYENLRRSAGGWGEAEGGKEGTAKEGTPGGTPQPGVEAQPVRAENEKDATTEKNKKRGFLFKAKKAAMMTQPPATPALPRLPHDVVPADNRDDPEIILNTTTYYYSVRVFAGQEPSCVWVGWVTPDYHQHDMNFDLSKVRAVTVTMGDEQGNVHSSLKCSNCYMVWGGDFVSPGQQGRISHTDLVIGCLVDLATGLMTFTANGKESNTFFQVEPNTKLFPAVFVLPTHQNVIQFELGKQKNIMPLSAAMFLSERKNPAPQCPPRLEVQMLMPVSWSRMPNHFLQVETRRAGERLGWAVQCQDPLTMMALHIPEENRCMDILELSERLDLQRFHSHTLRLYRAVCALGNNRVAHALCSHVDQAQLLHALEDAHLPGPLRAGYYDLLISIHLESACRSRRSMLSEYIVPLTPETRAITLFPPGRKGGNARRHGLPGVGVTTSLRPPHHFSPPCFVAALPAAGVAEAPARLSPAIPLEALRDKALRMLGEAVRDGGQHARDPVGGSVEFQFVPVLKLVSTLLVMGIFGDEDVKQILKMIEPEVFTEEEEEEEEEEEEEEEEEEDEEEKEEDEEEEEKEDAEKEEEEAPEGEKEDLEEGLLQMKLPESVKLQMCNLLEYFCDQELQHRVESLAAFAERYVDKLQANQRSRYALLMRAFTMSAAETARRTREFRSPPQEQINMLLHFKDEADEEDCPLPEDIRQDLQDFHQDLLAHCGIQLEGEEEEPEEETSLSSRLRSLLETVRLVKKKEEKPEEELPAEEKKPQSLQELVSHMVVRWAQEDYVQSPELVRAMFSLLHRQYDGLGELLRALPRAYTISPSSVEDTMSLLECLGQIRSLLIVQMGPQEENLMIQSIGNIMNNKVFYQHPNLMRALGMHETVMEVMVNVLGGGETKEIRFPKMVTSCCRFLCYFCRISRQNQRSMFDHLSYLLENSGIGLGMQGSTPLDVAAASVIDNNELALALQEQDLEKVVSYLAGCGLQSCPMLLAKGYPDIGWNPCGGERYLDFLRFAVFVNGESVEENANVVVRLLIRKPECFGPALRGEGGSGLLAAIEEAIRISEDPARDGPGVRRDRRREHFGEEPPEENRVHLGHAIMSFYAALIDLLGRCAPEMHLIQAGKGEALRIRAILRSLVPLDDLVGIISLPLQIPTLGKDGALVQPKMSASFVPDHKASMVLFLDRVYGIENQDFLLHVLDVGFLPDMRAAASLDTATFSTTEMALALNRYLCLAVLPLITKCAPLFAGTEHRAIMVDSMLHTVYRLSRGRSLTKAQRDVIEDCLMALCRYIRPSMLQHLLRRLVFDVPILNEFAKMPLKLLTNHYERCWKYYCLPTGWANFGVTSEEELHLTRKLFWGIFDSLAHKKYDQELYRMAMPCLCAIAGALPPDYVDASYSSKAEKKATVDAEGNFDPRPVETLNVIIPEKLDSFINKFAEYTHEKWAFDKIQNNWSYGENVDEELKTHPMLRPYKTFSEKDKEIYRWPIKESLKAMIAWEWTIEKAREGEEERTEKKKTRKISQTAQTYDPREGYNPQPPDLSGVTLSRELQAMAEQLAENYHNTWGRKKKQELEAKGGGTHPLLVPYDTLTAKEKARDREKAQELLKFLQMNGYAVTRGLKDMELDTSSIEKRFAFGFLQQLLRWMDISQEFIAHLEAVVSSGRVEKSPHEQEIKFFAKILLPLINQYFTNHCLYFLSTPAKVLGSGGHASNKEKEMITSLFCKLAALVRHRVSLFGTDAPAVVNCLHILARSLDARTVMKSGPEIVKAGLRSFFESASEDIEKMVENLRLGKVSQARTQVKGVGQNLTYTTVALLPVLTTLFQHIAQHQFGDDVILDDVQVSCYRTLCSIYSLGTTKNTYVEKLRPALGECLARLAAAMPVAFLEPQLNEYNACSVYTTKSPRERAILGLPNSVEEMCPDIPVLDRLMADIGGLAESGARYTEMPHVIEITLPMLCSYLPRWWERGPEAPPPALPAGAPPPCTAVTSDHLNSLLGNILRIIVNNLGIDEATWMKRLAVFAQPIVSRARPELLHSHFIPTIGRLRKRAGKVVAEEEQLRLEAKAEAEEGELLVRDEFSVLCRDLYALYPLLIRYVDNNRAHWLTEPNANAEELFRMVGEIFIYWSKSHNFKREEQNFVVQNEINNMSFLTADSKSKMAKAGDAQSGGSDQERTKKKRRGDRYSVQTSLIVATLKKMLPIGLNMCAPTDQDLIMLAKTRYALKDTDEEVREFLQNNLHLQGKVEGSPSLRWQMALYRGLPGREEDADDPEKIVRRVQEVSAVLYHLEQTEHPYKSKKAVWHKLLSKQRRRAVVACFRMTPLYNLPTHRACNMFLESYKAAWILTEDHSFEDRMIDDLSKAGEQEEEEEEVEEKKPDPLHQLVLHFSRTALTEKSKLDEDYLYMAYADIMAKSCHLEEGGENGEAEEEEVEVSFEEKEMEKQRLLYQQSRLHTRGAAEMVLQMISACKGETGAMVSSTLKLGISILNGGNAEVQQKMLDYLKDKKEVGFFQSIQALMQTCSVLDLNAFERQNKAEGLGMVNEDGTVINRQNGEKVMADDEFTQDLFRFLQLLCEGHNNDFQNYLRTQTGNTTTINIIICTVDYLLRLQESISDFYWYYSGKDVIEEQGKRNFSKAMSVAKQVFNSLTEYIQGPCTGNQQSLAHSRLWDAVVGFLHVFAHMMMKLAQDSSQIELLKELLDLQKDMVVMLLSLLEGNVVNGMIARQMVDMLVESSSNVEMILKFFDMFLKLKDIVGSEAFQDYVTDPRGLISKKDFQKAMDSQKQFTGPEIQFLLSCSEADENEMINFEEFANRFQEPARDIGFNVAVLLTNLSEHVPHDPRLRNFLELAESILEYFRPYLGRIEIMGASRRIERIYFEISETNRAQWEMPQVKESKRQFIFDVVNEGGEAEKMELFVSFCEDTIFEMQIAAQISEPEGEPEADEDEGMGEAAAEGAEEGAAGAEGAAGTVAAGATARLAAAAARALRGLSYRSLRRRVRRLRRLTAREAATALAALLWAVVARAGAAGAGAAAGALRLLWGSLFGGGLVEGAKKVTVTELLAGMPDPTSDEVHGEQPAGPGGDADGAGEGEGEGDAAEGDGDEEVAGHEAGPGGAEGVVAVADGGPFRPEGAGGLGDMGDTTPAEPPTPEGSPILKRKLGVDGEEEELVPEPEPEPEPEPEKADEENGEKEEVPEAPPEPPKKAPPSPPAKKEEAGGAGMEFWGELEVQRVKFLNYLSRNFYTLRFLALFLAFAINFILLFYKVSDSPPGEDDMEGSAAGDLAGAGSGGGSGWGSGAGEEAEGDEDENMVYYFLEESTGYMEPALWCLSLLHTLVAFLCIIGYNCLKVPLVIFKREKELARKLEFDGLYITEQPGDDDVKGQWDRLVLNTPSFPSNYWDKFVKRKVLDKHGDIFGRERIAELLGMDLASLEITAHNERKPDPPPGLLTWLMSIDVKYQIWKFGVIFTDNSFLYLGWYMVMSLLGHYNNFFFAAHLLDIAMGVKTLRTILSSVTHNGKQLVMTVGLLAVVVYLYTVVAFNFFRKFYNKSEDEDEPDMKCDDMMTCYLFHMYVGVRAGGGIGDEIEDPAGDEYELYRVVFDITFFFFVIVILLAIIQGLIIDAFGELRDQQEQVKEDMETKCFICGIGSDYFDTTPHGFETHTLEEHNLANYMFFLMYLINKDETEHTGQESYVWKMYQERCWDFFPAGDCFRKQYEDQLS

| binding to RyR1 R12 W995A by ITC (RyR1-W995A R12; in the presence of AMP-PCP or ADP) | binding to RyR1 R12 W995A by ITC (RyR1-W995A R12; no nucleotide) | SMILES | effect on Ca2+-dependent [3H]ryanodine binding (WT RyR1; 100 uM RI-2) | [3H]ryanodine binding (B/Bmax) (WT RyR1; pCa 2.04) | [3H]ryanodine binding (B/Bmax) (WT RyR1; pCa 2.67) | [3H]ryanodine binding (B/Bmax) (WT RyR1; pCa 3.39) | [3H]ryanodine binding (B/Bmax) (WT RyR1; pCa 4.03) | [3H]ryanodine binding (B/Bmax) (WT RyR1; pCa 4.66) | [3H]ryanodine binding (B/Bmax) (WT RyR1; pCa 5.03) | [3H]ryanodine binding (B/Bmax) (WT RyR1; pCa 5.42) | [3H]ryanodine binding (B/Bmax) (WT RyR1; pCa 6) | [3H]ryanodine binding (B/Bmax) (WT RyR1; pCa 6.54) | [3H]ryanodine binding (B/Bmax) (WT RyR1; pCa 6.97) | [3H]ryanodine binding (B/Bmax) (WT RyR1; pCa 7.49) |
| --- | --- | --- | --- | --- | --- | --- | --- | --- | --- | --- | --- | --- | --- | --- |
| can no longer be detected | completely abolishes | O=C1CN(/N=C/c2ncc(-c3ccc(Br)cc3)o2)C(=O)N1 [AZU, Azumolene] |  |  |  |  |  |  |  |  |  |  |  |  |
|  |  | O=C(C[C@@H](NCCCO)C(=O)O)Nc1ccc2ccccc2c1 [RI-2] | inhibitory effect | 0.002952 (2×) and 0.002725 and -0.000227 | 0.005451 and 0.006359 and 0.002952 and 0.002725 | 0.01453 and 0.0134 and 0.008857 (2×) | 0.02816 and 0.03452 and 0.02475 and 0.02703 | 0.04474 and 0.04315 and 0.03702 and 0.03429 | 0.04565 and 0.04292 and 0.03884 and 0.03702 | 0.0293 and 0.03838 and 0.02362 and 0.0243 | 0.009312 and 0.01272 and 0.009084 and 0.003634 | 0.005678 and 0.003861 and -0.000454 and 0.00159 | 0.004088 and 0.006813 and 0.002044 and 0.0009084 | 0.001136 and 0.002044 (2×) and 0.001363 |

Source: paper PMC12627627 (Nature Communications, 2025)
